Legend:
[1] = tested on: human drug-resistant prostate cancer 22Rv1 cell; experiment: MTT cytotoxicity assay, 22Rv1 cells; format: cell-based; settings: for viability at 100 µM / IC50: Homo sapiens, 22Rv1; for viability at 100 µM: read-out: Viability at 100 µM, % of Control, 22Rv1 Cells; for IC50: 72 h treatment; for SI (selectivity index): [viability of PNT-2 cells]/[viability of 22Rv1 cells] at 100 µM
Excerpt: (§1) We have investigated the effect of the isolated compounds 1, 1a, 2, 7–9 on the viability of human drug-resistant prostate cancer 22Rv1 cell as well as on human prostate non-cancer PNT-2 cells using an MTT assay (Table 3). We have also determined a selectivity index (SI) at for all the tested substances (Table 3). […] Note, 22Rv1 cells are known to be resistant to the hormone therapy due to the expression of androgen receptor splice variant AR-V7 [15]. Thus, the compounds which are active inAR-V7-positive 22Rv1 cells are of high clinical interest.
(§2) The human prostate cancer cells 22Rv1 and human prostate non-cancer cells PNT-2 were purchased from ATCC. Cell lines were cultured according to the manufacturers instructions in 10% FBS/RPMI media (Invitrogen). Cells were continuously kept in culture for a maximum of 3 months, and were routinely inspected microscopically for stable phenotype and regularly checked for contamination with mycoplasma. The authentity of the cells has recently been confirmed by the Multiplexion (Heidelberg, Germany) using highly polymorphic short tandem repeat loci.
(§3) The in vitro cytotoxicity of individual substances was evaluated using the MTT (3-(4,5-dimethylthiazol-2-yl)-2,5-diphenyltetrazolium bromide) assay, which was performed as previously described. The vehicle (DMSO) treated cells were used as a negative control. Treatment time was 72 h.

[2] = MTT cytotoxicity assay, PNT-2 cells; format: cell-based, human; settings: human, PNT-2 prostate non-cancer cells, 100 µM, 72 h, read-out: Viability at 100 µM, % of Control, PNT-2 Cells
Excerpt: as §1, §2, §3

[3] = tested on: human prostate non-cancer PNT-2 cells; experiment: MTT cytotoxicity assay, PNT-2 cells; format: cell-based; settings: Homo sapiens, PNT2, 72 h treatment
Excerpt: as §1, §2, §3

[4] = tested on: murine peritoneal macrophages co-incubated with lipopolysaccharide (LPS); experiment: ROS level analysis in LPS-treated macrophages (DCF-DA fluorescence); format: cell-based, Mice BALB/c; settings: 10 μM, 1 h at 37 °C, LPS co-incubation; p < 0.05
Method: Figure 5 Effect of compounds on reactive oxygen species (ROS) level in murine peritoneal macrophages co-incubated with lipopolysaccharide (LPS). The compounds were tested at a concentration of 10 μM. Time of cell incubation with compounds was 1 h at 37 °C. * p < 0.05. (Student’s t-test).
The suspension of macrophages on 96-well plates (2 × 10^4 cells/well) were washed withphosphate-buffered saline (PBS) and treated with 180 µL/well of the tested compounds (10 μM) for 1 h and 20 µL/well LPS from E. coli serotype 055:В5 (Sigma-Aldrich, MA, USA, 1.0 μg/mL), which were both dissolved in PBS and cultured at 37 °C in a CO2-incubator for one hour. For the ROS levels measurement, 200 μL of 2,7-dichlorodihydrofluorescein diacetate (DCF-DA, Sigma, final concentration 10 μM) fresh solution was added to each well, and the plates were incubated for 30 min at 37 °C. The intensity of DCF-DA fluorescence was measured at λex 485 n/λem 518 nm using the plate reader PHERAstar FS (BMG Labtech, Offenburg, Germany).
Mice BALB/c were sacrificed by cervical dislocation. Peritoneal macrophages were isolated using standard procedures. For this purpose, 3 ml of PBS (pH 7.4) was injected into the peritoneal cavity and the body intensively palpated for 1–2 min. Then the peritoneal fluid was aspirated with a syringe. […]

[5] = tested on: LPS-stimulated macrophages; experiment: NO (RNS) level analysis in LPS-treated macrophages (DAF FM-DA fluorescence); format: cell-based, Mice BALB/c; settings: 1 μM (non-toxic concentration); p < 0.05
Method: Compound 9 suppressed NO production in LPS-stimulated macrophages at non-toxic concentration of 1 μM. NO level in these cells was decreased by 24.1 ± 0.7% (p < 0.05, Student’s t-test) in comparison with LPS-treated control (data not shown). Therefore, compound 9 may be a promising candidate for the therapy of inflammatory diseases accompanying overproduction of NO.
The suspension of macrophages on 96-well plates (2 × 10^4 cells/well) were washed with the PBS and treated with 180 µL/well of the tested compounds (10 μM) for 1 h and 20 µL/well LPS from E. coli serotype 055:В5 (Sigma, 1.0 μg/mL), which were both dissolved in PBS and cultured at 37 °C in a CO2-incubator for one hour. For the RNS levels measurement, 200 μL Diaminofluorescein-FM diacetate (DAF FM-DA, Sigma, final concentration 10 μM) fresh solution was added to each well, and the plates were incubated for 40 min at 37 °C, then replace with fresh PBS, and then incubated for an additional 30 min to allow complete de-esterification of the intracellular diacetates. The intensity of DAF FM-DA fluorescence was measured at λex 485 n/λem 520 nm using the plate reader PHERAstar FS (BMG Labtech, Offenburg, Germany).
Mice BALB/c were sacrificed by cervical dislocation. Peritoneal macrophages were isolated using standard procedures. […]

| SMILES | viability at 100 µM ([1]; 72 h, MTT assay) [%] | IC50 ([1]; MTT assay) [µM] | SI (selectivity index) ([1]; 72 h) | viability at 72 h, 100 µM [2] [%] | IC50 [3] [µM] | Effect on ROS production [4] | Cytotoxicity in cancer cells in comparison with the other substances ([1]; MTT assay, 72 h) | Decrease of NO level in comparison with LPS-treated control [5] [%] | IC50 ([1]; MTT assay, positive control) [µM] | IC50 ([3]; positive control) [µM] |
| --- | --- | --- | --- | --- | --- | --- | --- | --- | --- | --- |
| CC(CO)=C1CCC23COC(C2)C(O)(C(=O)O)CCC13 (centres unmarked) [Compound 1, Piltunine A] | 65.5 | > 100 | 1.48 | 97.2 | > 100 | – | – | – | – | – |
| COC(=O)C1(O)CCC2C(=C(C)CO)CCC23COC1C3 (centres unmarked) [Compound 1a] | 62.2 | > 100 | 1.29 | 80.4 | > 100 | – | – | – | – | – |
| CC(=O)OC/C(C)=C1\CC[C@]23CO[C@H](C2)[C@@](O)(C(=O)O)CC[C@@H]13 [Compound 2, Piltunine B] | 61.9 | > 100 | 1.34 | 82.9 | > 100 | – | – | – | – | – |
| CC(=O)C1=CC[C@]23CO[C@H](C2)[C@@](O)(C(=O)O)CC[C@@H]13 [Compound 5, Piltunine E] | – | – | – | – | – | significant down-regulation of ROS production | – | – | – | – |
| C=C(C)C1(O)CCC23COC(C2)C(O)(C(=O)O)CCC31 (centres unmarked) [Compound 7, penigrisacid D] | 63.8 | > 100 | 1.26 | 80.7 | > 100 | – | – | – | – | – |
| C[C@H]1CCC[C@H](C[C@H]2Cc3cc(O)cc(O)c3C(=O)O2)O1 [Compound 8, cladosporin] | 38.7 | 71.7 ± 8.9 | – | 88.1 | > 100 | – | most cytotoxic in cancer cells | – | – | – |
| CC1OC(CC2Cc3cc(O)cc(O)c3C(=O)O2)CCC1O (centres unmarked) [Compound 9, 5’-hydroxyasperentin] | 54.9 | > 100 | 1.01 | 55.5 | > 100 | significant down-regulation of ROS production | – | 24.1 ± 0.7 | – | – |
| CC(=O)O[C@@]12CO[C@@H]1C[C@H](O)[C@@]1(C)C(=O)[C@H](O)C3=C(C)[C@@H](OC(=O)[C@H](O)[C@@H](NC(=O)OC(C)(C)C)c4ccccc4)C[C@@](O)([C@@H](OC(=O)c4ccccc4)[C@H]21)C3(C)C [Docetaxel, reference compound] | – | – | – | – | – | – | – | – | 0.00278 ± 0.00107 | 0.0847 ± 0.0206 |

Reference: PMC6891813, “Piltunines A–F from the Marine-Derived Fungus Penicillium piltunense KMM 4668” (Marine Drugs, 2019)
